The values below come from patent publication US20240067655A1 (NEURON23, INC., priority 2020, published 2024).

As usually defined, the IC50 is the point on the concentration scale where inhibition reaches its midpoint.

This test deals with T1, wt human LRRK2, catalytic site (Homo sapiens, UniProt Q5S007).
T1 construct: wt human LRRK2, catalytic site; purchased ThermoFisher/USA
T1 sequence (Q5S007 1879-2138 limits assumed): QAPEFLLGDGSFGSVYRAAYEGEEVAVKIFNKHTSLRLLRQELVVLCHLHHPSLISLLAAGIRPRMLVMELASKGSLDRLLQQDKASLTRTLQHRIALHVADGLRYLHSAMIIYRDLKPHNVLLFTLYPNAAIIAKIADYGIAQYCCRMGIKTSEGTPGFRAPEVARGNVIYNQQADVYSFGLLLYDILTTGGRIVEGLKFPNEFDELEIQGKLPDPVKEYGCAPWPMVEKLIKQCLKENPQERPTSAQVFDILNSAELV
Nature of the test: TR-FRET LanthaScreen Tb Kinase Activity Assay (Example 71). The settings on record: compounds of Table 4, 38 uM ATP, method names only wt human LRRK2, read-out: IC50, Inhibitory Activity Toward LRRK2 (Wt) and LRRK2 (G2019). Type of test: biochemical. On the procedure:
The compounds in Table 4 were tested for their inhibitory effect on LRRK2 kinases according to the following procedures.
The basic protocol for TR-FRET LanthaScreen Tb Kinase Activity Assay inhibitor studies were performed as follows. LanthaScreen Kinase Activity Assays (ThermoFisher/USA) to evaluate inhibitors were performed by addition of 100 nl of test compound in corresponding DMSO dilutions/5 μl of kinase/fluorescein-ERM(LRRKtide) peptide mixture, 5 μl of ATP into 384 well small volume plates. After incubation for 120 minutes at room temperature, the detection reagents containing Tb-anti-pLRRKtide antibody were added to monitor phosphrylation level of peptide. Then, after 60 min minutes incubation at room temperature plates were read in Envision. Data analysis of emission ratios was according to LanthaScreen Tb Kinase Activity Assay protocol.
Kinase and assay components were adjusted to final concentrations according to the kit protocol. For LRRK2: 2 nM wt human LRRK2, catalytic site, catalytic site (ThermoFisher/USA), 400 nM peptide, 38 uM ATP in 1× Kinase Buffer A.
Basic protocol for TR-FRET LanthaScreen Tb Kinase Activity Assay inhibitor studies involved two steps:
Enzymatic step: Addition of 100 nl of test compound in corresponding DMSO dilutions, 5 μl of kinase/substrate mixture, 5 μl of ATP into 384 well small volume plates. Incubation for 120 minutes at room temperature.
Detection step: Addition of 10 μl EDTA & antibody, read plate after 60 minutes. Data analysis of emission ratios according to KinEASE assay protocol.
Background: TR-FRET usually uses a lanthanide donor and a delayed reading to cut background.
As to `C[C@@H]1CCN2C(c3c(F)cccc3F)=Nc3cn[nH]c3-c3cnn1c32` (single isomer, unassigned) [Compound 346], the IC50 is 0.01 to 0.1 µM.

As for `C[C@H]1CCN2C(c3c(F)cccc3F)=Nc3cn[nH]c3-c3cnn1c32` (single isomer, unassigned) [Compound 347], the half-inhibitory concentration (IC50) is below 0.01 µM.

Regarding `C[C@@H]1CN2C(c3c(F)cccc3F)=Nc3cn[nH]c3-c3cnn(c32)C1` (single isomer, unassigned) [Compound 349], the IC50 was below 0.01 µM.

Consider `C[C@H]1CN2C(c3c(F)cccc3F)=Nc3cn[nH]c3-c3cnn(c32)C1` (single isomer, unassigned) [Compound 350], for which the concentration for half-maximal inhibition (IC50) fell in the range of 0.01 to 0.1 µM.

Regarding `Cc1cccc(F)c1C1=Nc2cn[nH]c2-c2cnn3c2N1CCC3` [Compound 340, 9-(2-fluoro-6-methylphenyl)-3,6,7,8-tetrahydro-2,3,5,5a,8a,10 hexaazabenzo[cd]cyclopenta[h]azulene], the IC50 was below 0.01 µM.

For the compound `Fc1cccc(Cl)c1C1=Nc2cn[nH]c2-c2cnn3c2N1CCC3` [Compound 341, 9-(2-chloro-6-fluorophenyl)-3,6,7,8-tetrahydro-2,3,5,5a,8a,10-hexaazabenzo[cd]cyclopenta[h]azulene], the IC50 is below 0.01 µM.

As to `Clc1cccc(Cl)c1C1=Nc2cn[nH]c2-c2cnn3c2N1CCC3` [Compound 342, 9-(2,6-dichlorophenyl)-3,6,7,8-tetrahydro-2,3,5,5a,8a,10-hexaazabenzo[cd]cyclopenta[h]azulene], the half-maximal inhibitory concentration (IC50) fell in the range of 0.01 to 0.1 µM.

`Cc1cc(F)c(C2=Nc3cn[nH]c3-c3cnn4c3N2CCC4)c(F)c1` [Compound 343, 9-(2,6-difluoro-4-methylphenyl)-3,6,7,8-tetrahydro-2,3,5,5a,8a,10 hexaazabenzo[cd]cyclopenta[h]azulene]: the IC50 is below 0.01 µM.

`Fc1cccc(F)c1C1=Nc2cn[nH]c2-c2cnn3c2N1CCCC3` [Compound 344, 10-(2,6-difluorophenyl)-6,7,8,9-tetrahydro-3H-2,3,5,5a,9a,11-hexaazadicyclopenta[b,kl]heptalene]: the concentration for half-maximal inhibition (IC50) lay in the range of 0.01 to 0.1 µM.

`CC1CCN2C(c3c(F)cccc3F)=Nc3cn[nH]c3-c3cnn1c32` (centres unmarked) [Compound 345, 9-(2,6-difluorophenyl)-6-methyl-3,6,7,8-tetrahydro-2,3,5,5a,8a,10-hexaazabenzo[cd]cyclopenta[h]azulene]: the half-maximal inhibitory concentration (IC50) is below 0.01 µM.

On to `CC1CN2C(c3c(F)cccc3F)=Nc3cn[nH]c3-c3cnn(c32)C1` (centres unmarked) [Compound 348, 9-(2,6-difluorophenyl)-7-methyl-2,6,7,8-tetrahydro-2,3,5,5a,8a,10-hexaazabenzo[cd]cyclopenta[h]azulene], for which the half-inhibitory concentration (IC50) was below 0.01 µM.

Consider `CC1CCn2ncc3c2N1C(c1c(F)cccc1F)=Nc1cn[nH]c1-3` (centres unmarked) [Compound 351, 9-(2,6-difluorophenyl)-8-methyl-3,6,7,8-tetrahydro-2,3,5,5a,8a,10-hexaazabenzo[cd]cyclopenta[h]azulene], for which the half-inhibitory concentration (IC50) fell in the range of 0.01 to 0.1 µM.

For `Cc1nc2c3n1CCCN3C(c1c(F)cccc1F)=Nc1cn[nH]c1-2` [Compound 352], the IC50 is above 1 µM.

For `Fc1ccc(Br)c(F)c1C1=Nc2cn[nH]c2-c2cnn3c2N1CCC3` [Compound 353, 9-(3-bromo-2,6-difluorophenyl)-3,6,7,8-tetrahydro-2,3,5,5a,8a,10-hexaazabenzo[cd]cyclopenta[h]azulene], the IC50 is below 0.01 µM.

For the compound `Cc1ccc(F)c(C2=Nc3cn[nH]c3-c3cnn4c3N2CCC4)c1F` [Compound 354, 9-(2,6-difluoro-3-methylphenyl)-3,6,7,8-tetrahydro-2,3,5,5a,8a,10 Hexaazabenzo[cd]cyclopenta[h]azulene], the IC50 is below 0.01 µM.

Take `Fc1ccc(Br)c(Cl)c1C1=Nc2cn[nH]c2-c2cnn3c2N1CCC3` [Compound 355, 8-(3-bromo-2-chloro-6-fluoro-phenyl)-3,4,7,9,13,14-hexazatetracyclo-[7.6.1.02,6.013,16]hexadeca-1(16),2(6),4,7,14-pentaene]: the IC50 was below 0.01 µM.

On to `Fc1cccc(C2CC2)c1C1=Nc2cn[nH]c2-c2cnn3c2N1CCC3` [Compound 356, 9-(2-cyclopropyl-6-fluorophenyl)-3,6,7,8-tetrahydro-2,3,5,5a,8a,10-hexaazabenzo[cd]cyclopenta[h]azulene], for which the IC50 fell in the range of 0.01 to 0.1 µM.

Regarding `N#Cc1cc(F)c(C2=Nc3cn[nH]c3-c3cnn4c3N2CCC4)c(F)c1` [Compound 358], the IC50 is 0.01 to 0.1 µM.

For `OCc1cc(F)c(C2=Nc3cn[nH]c3-c3cnn4c3N2CCC4)c(F)c1` [Compound 359, (3,5-difluoro-4-(3,6,7,8-tetrahydro-2,3,5,5a,8a,10-hexaazabenzo[cd]cyclopenta[h]azulen-9-yl)phenyl)methanol], the IC50 fell in the range of 0.01 to 0.1 µM.

Regarding `COc1cc(F)c(C2=Nc3cn[nH]c3-c3cnn4c3N2CCC4)c(F)c1` [Compound 360, 8-(2,6-difluoro-4-methoxy-phenyl)-3,4,7,9,13,14-hexazatetracyclo[7.6.1.02,6.013,16]hexadeca-1(16),2(6),4,7,14-pentaene], the concentration for half-maximal inhibition (IC50) lay in the range of 0.01 to 0.1 µM.

On to `c1ccc(C2=Nc3cn[nH]c3-c3cnn4c3N2CCC4)cc1` [Compound 361, 8-phenyl-3,4,7,9,13,14-hexazatetracyclo[7.6.1.02,6.013,16]hexadeca-1(16),2(6),4,7,14-pentaene], for which the IC50 was in the range of 0.01 to 0.1 µM.

With `Fc1ccccc1C1=Nc2cn[nH]c2-c2cnn3c2N1CCC3` [Compound 362, 9-(2-fluorophenyl)-3,6,7,8-tetrahydro-2,3,5,5a,8a,10-hexaazabenzo[cd]cyclopenta[h]azulene], the concentration for half-maximal inhibition (IC50) is 0.01 to 0.1 µM.

For the compound `Fc1ccccc1C1=Nc2cn[nH]c2-c2cnn3c2N1CCCC3` [Compound 363, 10-(2-fluorophenyl)-6,7,8,9-tetrahydro-3H-2,3,5,5a,9a,11-hexaazadicyclopenta[b,kl]heptalene], the IC50 lay within 0.1 to 1 µM.

In the case of `Clc1ccccc1C1=Nc2cn[nH]c2-c2cnn3c2N1CCCC3` [Compound 364, 10-(2-chlorophenyl)-6,7,8,9-tetrahydro-3H-2,3,5,5a,9a,11-hexaazadicyclopenta[b,kl]heptalene], the IC50 lay within 0.1 to 1 µM.

Turning to `Fc1cccnc1C1=Nc2cn[nH]c2-c2cnn3c2N1CCCC3` [Compound 365, 10-(3-fluoropyridin-2-yl)-6,7,8,9-tetrahydro-3H-2,3,5,5a,9a,11-hexaazadicyclopenta[b,kl]heptalene], the half-maximal inhibitory concentration (IC50) is above 1 µM.

Take `Cc1nn2c3c1-c1[nH]ncc1N=C(c1c(F)cccc1F)N3CCC2` [Compound 366, 9-(2,6-difluorophenyl)-4-methyl-3,6,7,8-tetrahydro-2,3,5,5a,8a,10-hexaazabenzo[cd]cyclopenta[h]azulene]: the IC50 lay in the range of 0.1 to 1 µM.

Consider `Fc1ccc(F)c(C2=Nc3cn[nH]c3-c3cnn4c3N2CCC4)c1F` [Compound 367, 8-(2,3,6-trifluorophenyl)-3,4,7,9,13,14-hexazatetracyclo[7.6.1.02,6.013,16]hexadeca-1(16),2(6),4,7,14-pentaene], for which the half-inhibitory concentration (IC50) fell in the range of 0.01 to 0.1 µM.

On to `Fc1ccc(Cl)c(F)c1C1=Nc2cn[nH]c2-c2cnn3c2N1CCC3` [Compound 368, 8-(3-chloro-2,6-difluoro-phenyl)-3,4,7,9,13,14-hexazatetracyclo[7.6.1.02,6.013,16]hexadeca-1(16),2(6),4,7,14-pentaene], for which the half-inhibitory concentration (IC50) is below 0.01 µM.

With `Fc1cccc(F)c1C1=Nc2cn[nH]c2-n2ncc3c2N1CCC3` [Compound 369, 9-(2,6-difluorophenyl)-3,6,7,8-tetrahydro-2,3,3b,4,8a,10-hexaazabenzo[cd]cyclopenta[h]azulene], the IC50 was in the range of 0.1 to 1 µM.
